The text below walks through data of patent US20060248793A1, “Method for making fungi compatible artificial snow” (priority 2005, published 2006).

Data set [1] deals with Rhodotorula pilimanae. The data set can be described thus: Fungal inhibition, spot test on lawn (Table 1, FIG. 1-3). Particulars: HPLC peak material purified from P. syringae 31R cultures. The data set is classed as cell-based. The method, then: Ten μL quantities of undiluted filtrate (1) and multiple aliquots of 2-fold dilutions of the filtrate (2-9) were applied to potato dextrose agar plates with freshly streaked R. pilimanae. The plate was incubated for 1 day at 28° C. The cleared spots show fungicidal growth inhibition.
Ten μL quantities of undiluted (1) and 2^−1 (2), 2^−2 (3) and 2^−3 (4) dilutions of the extracts were applied to potato dextrose agar plates with freshly streaked R. pilimanae. The plate was incubated for 1 day at 28° C. The cleared spots show fungicidal growth inhibition.
SnoMax® (1 g) was suspended in 5 ml H2O. One ml was mixed with 1 ml of acidified acetone, centrifuged, and the supernatant was recovered. An aliquot (200 μL) of the extract was evaporated to near dryness at 40° C. H2O (100 μL) was added and the mixture evenly suspended. Ten μL each of the SnoMax® suspension, extract, and H2O control were spotted onto a fresh lawn of R. pilimanae on PDA medium and incubated at 28° C. for 24 h.
SnoMax® was obtained from the snow making operation of a local Utah ski resort. One gram was suspended in water and an aliquot was extracted with acidified acetone. The extract was dried, suspended in water, and the solutions were tested for inhibitory activity against R. pilimanae grown as a lawn on potato dextrose agar medium (1) (FIG. 3). This assay is determines syringomycin production.

Data set [2] has as its system Rhodotorula pilimanae. The data set can be described thus: Effect of pH on the antifungal activity of Snomax suspensions (FIG. 4). The data set is classed as cell-based. The note with it: R. pilimanae lawn, 28° C., 36 hours. The method, then:
SnoMax was mixed and suspended with water for 1 hour at room temperature, the pHs were adjusted to 6, 8, or 10 by titrating with dilute solutions of NaOH and HCl, and the suspensions incubated at the final pHs for 1 hour at room temperature. The suspensions were then freeze dried. The freeze dried powders were extracted with acidified acetone, centrifuged, and the supernatant fractions recovered. Acetone was evaporated off at 45° C. and the residues serial diluted (2 fold) in water. Ten microliter aliquots of 2^−1 (a), 2^−2 (b), and 2^−3 (c) dilutions were deposited on a freshly prepared lawn of Rhodotorula pilimanae onto potato-dextrose-casamino acids (PDA-CA) agar medium prepared in Petri dishes. A 10 microliter aliquot of pure syringomycin E (1 mg per ml) was also applied (d). The Petri dishes were incubated at 28° C. for 36 hours. Result: pH 8 and 10 treatments eliminated the antifungal activities of snomax suspension and of syringomycin E, the latter serving as positive control.

For a further data set, the system named is Aureobasidium pullulans. Also on record: key: +=fungicidal. The note with it: cited from earlier work.
In the next data set the test system is Trichoderma atroviridae. Set-up: key: +=fungicidal. The note with it: cited from earlier work.
Another data set has as its system Candida kefyr. Set-up: key: +=fungicidal. Particulars: cited from earlier work.
Another data set has as its system Thielaviopsis basicola. Also on record: key: +=fungicidal. Particulars: cited from earlier work.
Another data set deals with Aspergillus niger. Set-up: key: +=fungicidal. Particulars: cited from earlier work.
A further data set deals with Aspergillus flavus. Also on record: key: +=fungicidal. Particulars: reference 1; cited from earlier work.
The next data set deals with Penicillium radulatum. Also on record: key: +=fungicidal. Particulars: cited from earlier work.
The next data set has as its system Rhizoctonia solani. Set-up: key: +=fungicidal. The note with it: cited from earlier work.
In a further data set the test system is Alternaria alternate. Set-up: key: +=fungicidal. Particulars: cited from earlier work.
The subject of the next data set is Ustilago maydis. Also on record: key: +=fungicidal. Particulars: cited from earlier work.
A further data set concerns Mucor sp. Also on record: key: +=fungicidal. Particulars: cited from earlier work.
The next data set concerns Penicillium digitatum. Also on record: key: +=fungicidal. Particulars: cited from earlier work.
For the next data set, the system named is Trichophyton sp. Set-up: key: +=fungicidal. The note with it: cited from earlier work.
The test system of data set [3] is Rhodotorula pilimanae. Also on record: key: +=fungicidal. The note with it: references 4, 5; cited from earlier work.
The subject of a further data set is Aspergillus fumigatus. Set-up: key: +=fungicidal. The note with it: cited from earlier work.
For the next data set, the system named is Cladosporium herbarum. Also on record: key: +=fungicidal. The note with it: cited from earlier work.
A further data set relates to Candida rugosa. Also on record: key: +=fungicidal. Particulars: cited from earlier work.
The next data set concerns Fusarium oxysporum. Also on record: key: +=fungicidal. Particulars: cited from earlier work.
For a further data set, the system named is Verticillium dahliae. Set-up: key: +=fungicidal. Particulars: cited from earlier work.
The test system of a further data set is Suillus tomentosus. The data set is described as follows: ECM fungal inhibition (Table 1). The data set is classed as cell-based. Particulars: unpublished results. Also on record: key: +=fungicidal. The text has this: (§1) In addition to laboratory studies, ECM fungi that exist in high elevation sites of the Rocky Mountains and that are also culturable in artificial media are studied. These include: Amanita muscaria, Boletus edulis, Hebeloma crustuliniform, Laccaria bicolor, Laccaria laccata, Lactarius deliciosus, Lactarius rufus, Suillus brevipes, Suillus tomentosus, Rhizopogon occidentalis, and Rhizopogon subcaerulescens. Cultures of these fungi are available from the laboratory of Kropp, Utah State University or are obtained from the American Type Culture Collection. Syringomycin-containing extracts from P. syringae 31R and SnoMax® are prepared by methods used for extraction of cyclic lipodepsipeptides (FIG. 2) (1). Briefly, equal volumes of acidified acetone are added to bacterial cultures and SnoMax® suspensions. The mixtures are centrifuged and evaporated to give the aqueous extracts for testing. SnoMax® itself is suspended in water (0.1 g per ml), and the suspension is tested for fungicidal activities.
(§2) For testing, the linear growth of the various ECM fungi in the presence and absence (controls) of extracts and SnoMax® suspensions are analyzed. Sterile agar strips (5 cm×1.5 cm, cut from fresh agar plates and placed in sterile plastic petri dishes) are inoculated at one end with a 5 mm diameter inoculum plug of the ECM fungus to be tested. Paper disks (1 cm diameter) are soaked in filter-sterilized extracts and SnoMax® suspensions and placed at the opposite end of the agar strip. Control strips with disks soaked in sterile distilled water are also be prepared. The concentrations of the extracts to be used are based on the independent determination of the minimal inhibitory concentrations needed to inhibit the in vitro growth of the yeast R. pilimanae. Two levels of 2-fold dilutions above and below this concentration are used. The plates are sealed with Parafilm and incubated at room temperature for several weeks. The extent of linear growth is measured and compared. The ages of the inoculum cultures are standardized and all inoculum disks are taken from the actively growing colony margin. […]

The subject of a further data set is Laccaria bicolor. The data set can be described thus: ECM fungal inhibition (Table 1). Format: cell-based. Set-up: key: +=fungicidal. The note with it: unpublished results.
Source text: as §1, §2

The subject of the next data set is Suillus brevipes. The data set is described as follows: ECM fungal inhibition (Table 1). The data set is classed as cell-based. Particulars: unpublished results. Also on record: key: +=fungicidal.
Source text: as §1, §2

The test system of the next data set is Candida tropicalis. Set-up: key: +=fungicidal. Particulars: cited from earlier work.
The subject of the next data set is Candida albicans. Also on record: key: +=fungicidal. Particulars: references 3, 8; cited from earlier work.
For another data set, the system named is Phytophthora infestans. Also on record: key: +=fungicidal. The note with it: cited from earlier work.
Another data set has as its system Fusarium moliniforme. Set-up: key: +=fungicidal. Particulars: cited from earlier work.
In a further data set the test system is Penicillium raistrikii. Also on record: key: +=fungicidal. Particulars: cited from earlier work.
A further data set has as its system Geotricum candidum. Set-up: key: +=fungicidal. The note with it: references 2, 6, 7, 8; cited from earlier work.
Another data set deals with Ceratocystis fimbriata. Also on record: key: +=fungicidal. Particulars: cited from earlier work.
The next data set relates to Saccharomyces cerevisiae. Set-up: key: +=fungicidal. The note with it: references 3, 5, 8; cited from earlier work.
A further data set deals with Rhizopus sp. Set-up: key: +=fungicidal. The note with it: cited from earlier work.
The test system of the next data set is Microsporium sp. Also on record: key: +=fungicidal. Particulars: cited from earlier work.
Another data set has as its system Penicillium expansum. Set-up: key: +=fungicidal. The note with it: cited from earlier work.
The next data set has as its system Geotricum citri-aurantii. Also on record: key: +=fungicidal. Particulars: cited from earlier work.
The subject of a further data set is Fusarium solani. Also on record: key: +=fungicidal. The note with it: cited from earlier work.
Another data set has as its system Candida parapsilosis. Set-up: key: +=fungicidal. Particulars: cited from earlier work.
The next data set deals with Candida krusei. Set-up: key: +=fungicidal. The note with it: cited from earlier work.
For a further data set, the system named is Cryptococcus neoformans. Also on record: key: +=fungicidal. The note with it: cited from earlier work.
Another data set has as its system Botrytis cinera. Set-up: key: +=fungicidal. The note with it: cited from earlier work.

In the case of syringomycin E, the “growth inhibitory activity against R. pilimanae, other yeasts and filamentous fungi” value with Rhodotorula pilimanae [1] is on record as “growth inhibitory activity”. Further, the “antifungal activity after pH treatment” value was “eliminated” in the data set on Rhodotorula pilimanae [2] (pH 8, 1 hour at room temperature) and “eliminated” with Rhodotorula pilimanae [2] (pH 10, 1 hour at room temperature).

Consider syringomycin [SR], for which the Fungal species inhibited result with Aureobasidium pullulans, with Trichoderma atroviridae, with Candida kefyr, with Thielaviopsis basicola, with Aspergillus niger and in the data set with Aspergillus flavus was “+” each time. The Fungal species inhibited result in the data set with Penicillium radulatum, in the data set on Rhizoctonia solani, in the data set on Alternaria alternate, in the data set on Ustilago maydis, in the data set on Mucor sp. and in the data set on Penicillium digitatum was “+” in each case. Also, the Fungal species inhibited entry is reported as “+” with Trichophyton sp.; “^c+” in the data set with Rhodotorula pilimanae [3]; “+” in the data set on Aspergillus fumigatus; “+” with Cladosporium herbarum; “+” in the data set with Candida rugosa; “+” with Fusarium oxysporum. Besides, the Fungal species inhibited entry with Verticillium dahliae, in the data set on Suillus tomentosus, in the data set on Laccaria bicolor, in the data set with Suillus brevipes, in the data set on Candida tropicalis and with Candida albicans was “+” in each case. Moreover, the Fungal species inhibited result in the data set on Phytophthora infestans, in the data set with Fusarium moliniforme, with Penicillium raistrikii, in the data set on Geotricum candidum, with Ceratocystis fimbriata and in the data set with Saccharomyces cerevisiae was “+” in each case. Further, the Fungal species inhibited entry with Rhizopus sp., with Microsporium sp., in the data set with Penicillium expansum, in the data set with Geotricum citri-aurantii, in the data set on Fusarium solani and with Candida parapsilosis was “+” throughout. Moreover, the Fungal species inhibited result in the data set on Candida krusei, with Cryptococcus neoformans and with Botrytis cinera was “+” each time.
